According to publication PMC3929086, “Targeted manipulation of the sortilin–progranulin axis rescues progranulin haploinsufficiency” (Human Molecular Genetics, 2013):
“Also recorded” adds a separate entry of the source.

How the values were obtained:
[1] = system: SORT1-mediated PGRN endocytosis; test: Quantitative DyL-rPGRN endocytosis assay in COS-1^SORT1 cells; format: cell-based, human; settings: 1 h; for inhibition of full-length PGRN endocytosis: COS-1^SORT1, ligand 10 μM (Fig. 4 legend), added simultaneously with DyL-rPGRN, vs vehicle
Method: COS-1 cells seeded on a 96-well black plate 1 day before were transfected with pCMV-SORT1 vector. After 24 h, cells were treated with fluorescence-tagged rPGRN (DyL-rPGRN) pre-labeled by DyLight™ 594 antibody labeling kit (Thermo Scientific). The DyL-rPGRN was diluted in OptiMEM to tested concentrations and incubated with the cells for 1 h for endocytosis. The cells were then washed with cold PBS and then fixed by 4% paraformaldehyde. After washing twice, each well was filled with PBS prior scanning. The total PGRN fluorescent signal from the cells was obtained by a plate reader with 593/618 nm (Ex/Em) settings. The endocytosis signal was normalized by the total nuclei signal obtained by staining with a Hoechst 33342 dye. Baseline endocytosis signal was defined as a signal from medium-only-treated cells, whereas the 100% endocytosis level was set as the signal obtained from cells treated with 50 nM DyL-rPGRN. For testing SORT1 ligands, DyL-rPGRN and the peptide were added simultaneously to the cells. For testing of PGRN binders, the binder was pre-incubated with DyL-rPGRN for 1 h before adding to the cells. For qualitative analysis, images from each well were captured by BD Pathway 855 system using a 20× magnification setting.

PGRN-SORT1 interaction = test: PGRN-SORT1 co-immunoprecipitation; format: biochemical, human; settings: HEK293 lysate with Flag-SORT1, 100 nM rPGRN, peptide at 10 M (sic; method 20 μM), densitometry
Method: HEK293T cells were transfected empty vector or pCMV-SORT1-Flag vector for 48 h. Then, cells were lysed by using Co-IP buffer. Pre-incubation was performed with 300 μg of lysate protein mixed with 20 μM NTS, human PGRN(588–593) peptide or mouse PGRN(584–589) peptide for 1 h. Then, rPGRN (100 nM) was added into the protein G beads pre-cleared supernatant and mixed for 30 min. Next, anti-Flag M2 agarose (Sigma) was added and mixed for another 4 h. The agarose was collected by centrifugation at 1000 g for 3 min and washed with Co-IP buffer six times. Captured protein was eluted from the beads using loading buffer and analyzed by western blot.

SORT1 [2] = test: PGRN endocytosis in M17 cells overexpressing SORT1; format: cell-based; settings: for endocytosis of rPGRN: M17^SORT1 cells, rPGRN 500 ng/ml, 60 min, immunofluorescence
Method: M17 cells seeded in 12-well culture plates (western blot) or on glass coverslips in 24-well culture plate (immunofluorescence) were transfected with pEGFP-N1 (Clontech) or pCMV-SORT1 (OriGene) vectors. Next day, the cells were changed into serum-free medium 1 h before addition of rPGRN (500 ng/ml) and treated for 60 min. The cells were then put on ice and washed with cold PBS. For western blot, cells were lysed in cold M-Per protein extraction buffer followed by standard procedures as mentioned. For immunofluorescence analyses, cells were fixed in 4% paraformaldehyde solution followed by PBS washes. The cells were then incubated in blocking buffer (PBS, 5% goat serum, 0.1% saponin) for 1 h at room temperature followed by incubation in primary antibody overnight at 4°C. The cells were incubated with secondary antibodies (1:1000) for 1 h at room temperature. The coverslips were then mounted onto slides and waited overnight before analysis. Image analysis was performed by Zeiss LSM 510 META confocal microscope using 60× magnification setting.

SORT1–PGRN interaction = test: MSD-based SORT1–PGRN interaction assay; format: biochemical, human; settings: 200 nM tagged rPGRN, SORT1-Flag captured on MSD plate
Method: M17 cells were transfected with pCMV-SORT1-Flag for 48 h. Then, the cell lysate was harvested by the same method used in the co-immunoprecipitation assay. Expression of SORT1-Flag protein was confirmed by western blot. MSD plate was first coated with the Flag M2 antibody (Sigma). Following an overnight incubation at 4°C, the plate was blocked for 2 h and then washed prior to addition of 5 µg/well of lysate protein containing SORT1-Flag protein. After overnight incubation at 4°C, it was then washed and added with 200 nM of either N-6His- or C-6His-tagged rPGRN pre-incubated with either vehicle, 20 µM or 200 µM of BVFP, for 30 min at room temperature. Then plate was then incubated for 2 h, washed and incubated with a mixture of PCDGF antibody and a SULFO-TAG-labeled anti-rabbit IgG antibody for 2 h. After final wash, the plate was read by the MSD Sector Imager 2400.

neutrophil elastase = test: Neutrophil elastase digestion of synthetic PGRN peptide, MALDI-MS; format: in vitro ADME
Method: An enzymatic reaction was set up with 7 μg of custom-synthesized PGRN(584–593) peptide (Mayo peptide synthesis core) and 20 μg of NE in a 25 μl reaction at 37°C. Every 10 min, 4 μl of the mixture was collected and diluted 10 times in a solvent mixture (50% acetonitrile:50% water:0.1% acetic acid) until 1 h had passed. For MALDI-MS analysis, 1 μl of the diluted reaction mixture was dried on a MS gold chip and then layered with a concentrated sinipinic acid matrix on top for crystallization. Afterwards, the samples were analyzed by the Bio-Rad MALDI-MS system.

[3] = system: PGRN endocytosis in SORT1^KO-hESCs; test: DyL-rPGRN endocytosis in SORT1^KO-hESCs; format: cell-based, human; settings: SORT1^KO-hESC compared with WT-hESC
Source text: To determine whether BVFP, when bound to PGRN, disrupts full-length PGRN and SORT1 binding, we devised a SORT1-dependent rPGRN precipitation assay utilizing the Meso-Scale Discovery (MSD) system (Supplementary Material, Fig. S4A and B). […] To include a higher-affinity PGRN588–593 motif binder as a positive control, an antibody targeting the motif, PGRN-CT antibody, was made for validating the approach (Fig. 5F). […] First, we found SORT1 was abundantly expressed in the wild-type hESCs (Fig. 5H). Similar to the results from COS-1^SORT1 cells, BVFP and PGRN-CT antibody inhibited endocytosis of DyL-rPGRN by 22 and 39%, respectively, under the same experimental conditions in wild-type hESCs (Fig. 5I left).
COS-1 cells seeded on a 96-well black plate 1 day before were transfected with pCMV-SORT1 vector. After 24 h, cells were treated with fluorescence-tagged rPGRN (DyL-rPGRN) pre-labeled by DyLight™ 594 antibody labeling kit (Thermo Scientific). The DyL-rPGRN was diluted in OptiMEM to tested concentrations and incubated with the cells for 1 h for endocytosis. The cells were then washed with cold PBS and then fixed by 4% paraformaldehyde. After washing twice, each well was filled with PBS prior scanning. The total PGRN fluorescent signal from the cells was obtained by a plate reader with 593/618 nm (Ex/Em) settings. […]

SORT1 [4] = test: SORT1 protein level in M17 cells (western blot); format: cell-based; settings: M17, rPGRN at 50 ng/ml, 1, 2 and 4 hours
Method: PGRN, SORT1, GFP, GAPDH and β-actin proteins were analyzed using 10% Tris–glycine polyacrylamide gel by SDS–PAGE. After electrophoresis, proteins on gel were transblotted to PVDF membranes followed by standard immunoblotting protocols.

## ELYENKPRRPYIL [NTS, neurotensin, reference compound]
[1]
  inhibition of full-length PGRN endocytosis: 90%
PGRN-SORT1 interaction
  inhibition of PGRN–SORT1 co-immunoprecipitation: significantly reduced the amount of rPGRN

## VPRPLL [mouse Pgrn584–589, mouse ortholog peptide of PGRN588–593, -VPRPLL]
[1]
  inhibition of full-length PGRN endocytosis: 73%
PGRN-SORT1 interaction
  inhibition of PGRN–SORT1 co-immunoprecipitation: significantly reduced the amount of rPGRN

## ALRQLL [human PGRN588–593, custom-synthesized C-terminal peptide of human PGRN, -ALRQLL]
[1]
  inhibition of full-length PGRN endocytosis: 93%
PGRN-SORT1 interaction
  inhibition of PGRN–SORT1 co-immunoprecipitation: significantly reduced the amount of rPGRN

## N-rP: human recombinant PGRN with 6-histidine tag on the amino-terminus
SORT1 [2]; M17 cells expressing titrated amounts of SORT1, western blot
  endocytosis of tagged rPGRN: dependently endocytosed
SORT1–PGRN interaction
  rPGRN binding to immobilized SORT1: specific binding signal

## PGRN574–593 peptide: synthetic PGRN574–593 peptide, molecular weight 2430 Da
Neutrophil elastase; 7 μg peptide, 20 μg NE, 25 μl, 37°C, sampled every 10 min to 1 h
  cleavage by neutrophil elastase: enzymatically cleaved by recombinant elastase (EL) in a time-dependent manner
Neutrophil elastase; product 1806 Da from 2430 Da
  cleavage site / residues removed by elastase: between residues Ala-588 and Leu-589; also recorded: last five residues were removed by EL

B1: DyL-rPGRN: DyLight™-594 fluorescence-labeled rPGRN (conjugate, UniProt P28799 1-593, looked up)
chain: MWTLVSWVALTAGLVAGTRCPDGQFCPVACCLDPGGASYSCCRPLLDKWPTTLSRHLGGPCQVDAHCSAGHSCIFTVSGTSSCCPFPEAVACGDGHHCCPRGFHCSADGRSCFQRSGNNSVGAIQCPDSQFECPDFSTCCVMVDGSWGCCPMPQASCCEDRVHCCPHGAFCDLVHTRCITPTGTHPLAKKLPAQRTNRAVALSSSVMCPDARSRCPDGSTCCELPSGKYGCCPMPNATCCSDHLHCCPQDTVCDLIQSKCLSKENATTDLLTKLPAHTVGDVKCDMEVSCPDGYTCCRLQSGAWGCCPFTQAVCCEDHIHCCPAGFTCDTQKGTCEQGPHQVPWMEKAPAHLSLPDPQALKRDVPCDNVSSCPSSDTCCQLTSGEWGCCPIPEAVCCSDHQHCCPQGYTCVAEGQCQRGSEIVAGLEKMPARRASLSHPRDIGCDQHTSCPVGQTCCPSLGGSWACCQLPHAVCCEDRQHCCPAGYTCNVKARSCEKEVVSAQPATFLARSPHVGVKDVECGEGHFCHDNQTCCRDNRQGWACCPYRQGVCCADRRHCCPAGFRCAARGTKCLRREAPRWDAPLRDPALRQLL
modifications: full-length DyLight 594 label
notes: DyLight™-594 fluorescence-labeled rPGRN
[1]; COS-1^SORT1, DyL-rPGRN 0 to 50 nM, 593/618 nm
  DyL-rPGRN endocytosis response: linear, non-saturated endocytosis response
[3]
  DyL-rPGRN endocytosis signal: significantly lower signal compared with the WT-hESCs

B2: rPGRN1-588: recombinant carboxyl-terminal-truncated PGRN 1–588 (protein)
chain: TRCPDGQFCPVACCLDPGGASYSCCRPLLDKWPTTLSRHLGGPCQVDAHCSAGHSCIFTVSGTSSCCPFPEAVACGDGHHCCPRGFHCSADGRSCFQRSGNNSVGAIQCPDSQFECPDFSTCCVMVDGSWGCCPMPQASCCEDRVHCCPHGAFCDLVHTRCITPTGTHPLAKKLPAQRTNRAVALSSSVMCPDARSRCPDGSTCCELPSGKYGCCPMPNATCCSDHLHCCPQDTVCDLIQSKCLSKENATTDLLTKLPAHTVGDVKCDMEVSCPDGYTCCRLQSGAWGCCPFTQAVCCEDHIHCCPAGFTCDTQKGTCEQGPHQVPWMEKAPAHLSLPDPQALKRDVPCDNVSSCPSSDTCCQLTSGEWGCCPIPEAVCCSDHQHCCPQGYTCVAEGQCQRGSEIVAGLEKMPARRASLSHPRDIGCDQHTSCPVGQTCCPSLGGSWACCQLPHAVCCEDRQHCCPAGYTCNVKARSCEKEVVSAQPATFLARSPHVGVKDVECGEGHFCHDNQTCCRDNRQGWACCPYRQGVCCADRRHCCPAGFRCAARGTKCLRREAPRWDAPLRDPA
modifications: left off: His6, N-terminal, state not stated
SORT1 [2]
  endocytosis of rPGRN: failed to be endocytosed

B3: rPGRN: wild-type human recombinant PGRN protein from stable HEK293 cells (protein)
chain: TRCPDGQFCPVACCLDPGGASYSCCRPLLDKWPTTLSRHLGGPCQVDAHCSAGHSCIFTVSGTSSCCPFPEAVACGDGHHCCPRGFHCSADGRSCFQRSGNNSVGAIQCPDSQFECPDFSTCCVMVDGSWGCCPMPQASCCEDRVHCCPHGAFCDLVHTRCITPTGTHPLAKKLPAQRTNRAVALSSSVMCPDARSRCPDGSTCCELPSGKYGCCPMPNATCCSDHLHCCPQDTVCDLIQSKCLSKENATTDLLTKLPAHTVGDVKCDMEVSCPDGYTCCRLQSGAWGCCPFTQAVCCEDHIHCCPAGFTCDTQKGTCEQGPHQVPWMEKAPAHLSLPDPQALKRDVPCDNVSSCPSSDTCCQLTSGEWGCCPIPEAVCCSDHQHCCPQGYTCVAEGQCQRGSEIVAGLEKMPARRASLSHPRDIGCDQHTSCPVGQTCCPSLGGSWACCQLPHAVCCEDRQHCCPAGYTCNVKARSCEKEVVSAQPATFLARSPHVGVKDVECGEGHFCHDNQTCCRDNRQGWACCPYRQGVCCADRRHCCPAGFRCAARGTKCLRREAPRWDAPLRDPALRQLL
modifications: left off: His6, N-terminal, state not stated
SORT1 [4]
  SORT1 level after rPGRN treatment: No significant changes in SORT1
SORT1 [2]
  endocytosis of rPGRN: significantly endocytosed
SORT1 [2]; M17 cells overexpressing SORT1
  subcellular localization after endocytosis: endolysosomal localization
